Test system: H1 human embryonic stem cells
Assay: Step-wise differentiation, RT-PCR of differentiation markers (Example 12, Table 13)
Assay type: cell-based
Details: GDF-8 200 ng/ml with Wnt3a or 2.5 μM compound in step 1, versus activin A/Wnt3a
Procedure: Stock cultures of human embryonic stem cells (H1 human embryonic stem cell line) were maintained in an undifferentiated, pluripotent state on reduced growth factor […]™-coated dishes in MEF conditioned medium with passage on average every four days. Passage was performed by exposing cell cultures to a solution of 1 mg/ml dispase (Invitrogen; Cat #17105-041) for 5 to 7 minutes at 37° C. followed by rinsing the monolayer with MEF conditioned culture medium and gentle scraping to recover cell clusters. Clusters were centrifuged at low speed to collect a cell pellet and remove residual dispase. Cell clusters were split at a 1:3 or 1:4 ratio for routine maintenance culture or a 1:1 ratio for immediate assay. All human ES cell lines were maintained at passage numbers less than 50 and routinely evaluated for normal karyotype and absence of mycoplasma.
Cell clusters were evenly resuspended in MEF conditioned medium supplemented with 8 ng/ml bFGF and seeded onto reduced growth factor […]™-coated 24-well, black wall culture plates (Arctic White; Cat #AWLS-303012) in volumes of 0.5 ml/well. Daily feeding was conducted by aspirating spent culture medium from each well and replacing with an equal volume of fresh medium. Plates were maintained at 37° C., 5% CO2 throughout the duration of assay.
The assay was initiated by aspirating the culture medium from each well and adding back an aliquot (0.5 ml) of test medium. Test conditions for the first step of differentiation were conducted over a three-day period, feeding daily by aspirating and replacing the medium from each well with fresh test medium. On the first day of assay, 100 ng/ml activin A (PeproTech; Cat #120-14) or 200 ng/ml GDF-8 (R&D Systems, Cat #788-G8) was added to respective assay wells where each growth factor was diluted into RPMI-1640 medium (Invitrogen; Cat #22400) with 1% Albumin Bovine Fraction V, Fatty Acid Free (FAF BSA) (MP Biomedicals, Inc; Cat 152401), 1% Probumin (Millipore; Cat #81-068-3) and 20 ng/ml Wnt3a (R&D Systems; Cat #1324-WN/CF). […]

Row | Compound | expression levels of markers associated with endodermal and endocrine differentiation (PCR)
1 | O=C1CCN2CCN(CC2)Cc2cc(Cl)cc(c2)Nc2ncnc(n2)-c2cncc(c2)CCCN1 [Compound 34, 5-Chloro-1,8,10,12,16,22,26,32-octaazapentacyclo[24.2.2.1˜3.7˜0.1˜9,13˜0.1˜14.18˜]tritriaconta-3(33), 4,6,9(32), 10,12,14(31), 15,17-nonaen-23-one] | similar, or in some instances, improved expression levels
2 | Cc1c[nH]c(-c2cnc(NCCNc3ccc(C#N)cn3)nc2-c2ccc(Cl)cc2Cl)n1 [Compound 56, 6-[(2-{[4-(2,4-Dichlorophenyl)-5-(4-methyl-1H-imidazol-2-yl)pyrimidin-2-yl]amino}ethyl)amino]pyridine-3-carbonitrile] | similar, or in some instances, improved expression levels
3 | GDF-8: growth factor GDF-8, also known as myostatin, member of the TGF-β family | similar, or in some instances, improved expression levels
